From patent US7973128B2, “Immunogenic polypeptide composed of tumor antigen-derived optimized cryptic peptides, and uses thereof” (Vaxon Biotech, priority 2005, dated 2011)

Assays:
[1] = test system: HLA-A*0201 transgenic HHD mice; experiment: Tetramer-positive CD8 T cells in draining lymph nodes of vaccinated HHD mice; type: in vivo, mouse; settings: for Responding mice (response to at least one peptide) / Frequency of strong responses (% of tetramer-positive CD8 cells at least twice the cutoff value; ++): HHD mice vaccinated with polypeptide; for Trispecific response: HHD mice, response to all three peptides
Experimental: HHD mice were injected subcutaneously with 100 μg of nonamer/decamer peptides, and with 240 μg of polypeptide emulsified in incomplete Freund's adjuvant (IFA) plus 150 μg of the I-A^b restricted HBVcore128 T-helper epitope. Eleven days later spleen cells (5×10^7 cells in 10 ml) from immunized mice were stimulated in vitro with peptide (10 μM) in RPMI 1640+10% FCS for five days. The CTL lines were established by weekly re-stimulation in vitro with irradiated spleen cells in the presence of diminishing peptide concentrations (1 to 0.1 μM) and 50 U/ml IL-2 (Proleukin, Chiron Corp., Emeryville, Calif.).
For tetramer labeling, cells from inguinal and para-aortic lymph nodes (LN) of immunized mice were stained with 15 μg/ml PE-coupled HLA-A2/TERT988Y, HLA-A2/MAGE-A248V9 and HLA-A2/HER-2/neu402Y tetramers (Proimmune, Oxford, UK) in the presence of an anti-Fc receptor antibody (clone 2.4 G2) in 20 μl of PBS, 2% FCS for 1 h at room temperature. The cells were washed once in PBS, 2% FCS and then stained with anti-CD44-FITC (clone 1M.178), anti-TCRβ-cychrome (clone H57) and anti-CD8α-APC (clone 53.6.7) (BD Biosciences, Le Pont de Claix, France) in 50 μl of PBS, 2% FCS for 30 min at 4° C. The cells were then washed once in PBS, 2% FCS and immediately analyzed in a FACSCalibur® flow cytometer (Becton Dickinson, San Jose, Calif., USA).
The simplest way to stimulate a polyspecific CTL response in vivo would be to inject a mixture of the relevant peptides. Therefore, the inventors examined whether HHD mice vaccinated with an equimolar mixture of peptides HER-2/neu402Y, TERT988Y and MAGE-A248V9 developed a polyspecific response in vivo. The immune response was evaluated by measuring the frequency of peptide-specific CD8 T cells in the lymph nodes draining the injection site seven days after vaccination, using specific tetramers. Before use, each tetramer was validated with peptide-specific CTL lines as previously described (Miconnet et al., 2002). A positive response was recorded when the percentage of tetramer-positive CD8 cells was higher than the mean percentage+3 standard deviations of tetramer-positive CD8 cells in six naive mice (0.16% for MAGE-A248V9, 0.13% for HER-2/neu402Y and 0.16% for TERT988Y). Eight mice were vaccinated with the peptide mixture in two independent experiments (Table 2). […] Three mice responded to one peptide and five responded to two peptides. Responses to MAGE-A248V9 were more frequent (6/8 mice) than responses to HER-2/neu402Y (4/8 mice) or TERT988Y (3/8 mice).
HHD mice were vaccinated with each polypeptide, and CD8 T cells specific for the individual peptides were identified in draining lymph nodes by using specific tetramers. All six polypeptide variants were immunogenic in HHD mice (i.e., they generated a response to at least one peptide) but the frequency of responding mice varied from one variant to the other. The most immunogenic variants were Poly-1, Poly-3 and Poly-6, with 100%, 87% and 83% of responding mice, respectively (Table 6). Poly-2, Poly-4 and Poly-5 induced a response in respectively 57%, 62% and 62% of vaccinated mice. The frequency of strong responses (% of tetramer-positive CD8 cells at least twice the cutoff value; designated ++) was highest with Poly-6 (41% of all responses), Poly-3 (30% of all responses) and Poly-1 (25% of all responses). The responses were directed against MAGE-A248V9 in 74% of responding mice, HER-2/neu402Y in 71% and TERT988Y in 55%.

[2] = test system: PBMC from healthy HLA-A*0201 donors; experiment: In vitro stimulation of healthy donor PBMC, intracellular IFNγ labeling of CD8 cells; type: cell-based, human; settings: for Donors with responses to all three peptides (trispecific): healthy donor PBMC, IFNγ-producing CD8 cells
Experimental: PBMC were collected by leukapheresis from healthy HLA-A*0201 volunteers. Dendritic cells (DC) were produced from adherent cells (2×10^6 cells/ml) cultured for seven days with 500 IU/ml GM-CSF (Leucomax®, Schering-Plough, Kenilworth, N.J.) and 500 IU/ml IL-4 (R&D Systems, Minneapolis, Minn.) in complete medium (RPMI 1640 supplemented with 10% heat-inactivated human AB serum, […] and antibiotics). On day 7, DC were pulsed with 10 μM peptides or polypeptides for 2 h; the maturation agents Poly I:C (Sigma, Oakville, Canada) at 100 ng/ml, and anti-CD40 mAb (clone G28-5, ATCC, Manassas, Va.) at 2 μg/ml were added to the culture and DCs were further incubated at 37° C. overnight or for up to 48 hours. Mature DC were then irradiated (3500 rads). CD8+ cells were purified by positive selection with CD8 MicroBeads (Miltenyi Biotec, Auburn, Calif.) according to the manufacturer's instructions. CD8^+ cells (2×10^5)+CD8^− cells (6×10^4) were stimulated with 2×10^4 peptide-pulsed DC in complete culture medium supplemented with 1000 IU/ml IL-6 and 5 IU/ml IL-12 (R&D Systems, Minneapolis, Minn.) in round-bottomed 96-well plates. From day 7, cultures were restimulated weekly with peptide-loaded DC in the presence of 20 IU/ml IL-2 (Proleukin, Chiron Corp., Emeryville, Calif.) and 10 ng/ml IL-7 (R&D Systems, Minneapolis, Minn.). After the third restimulation, CD8 cells were tested in an IFN-γ release assay.
T cells (10^5) were incubated with 2×10^5 T2 cells loaded with stimulating peptide in the presence of 20 μg/ml Brefeldin-A (Sigma, Oakville, Canada). Six hours later they were washed, stained with r-phycoerythrin-conjugated anti-CD8 antibody (Caltag Laboratories, Burlingame, Calif.) in PBS for 25 min at 4° C., washed again, and fixed with 4% PFA. The cells were then permeabilized with PBS, 0.5% BSA, 0.2% saponin (Sigma, Oakville, Canada), and labeled with an allophycocyanin-conjugated anti-IFNγ mAb (PharMingen, Mississauga, Canada) for 25 min at 4° C. before analysis with a FACSCalibur™ flow cytometer (Becton Dickinson, Mountain View, Calif.).
The inability of the peptide mixture to stimulate a trispecific CD8 T cell response was confirmed in vitro with human cells. […] PBMC activation was evaluated by measuring the percentage of IFNγ-producing CD8 cells by means of intracellular labeling. A positive response was recorded when the percentage of activated PBMC was at least twice that obtained with an irrelevant peptide. […]
In vitro immune responses were assessed by measuring the percentage of CD8 cells producing IFNγ after specific peptide activation. […]

| Substance | Responding mice (response to at least one peptide) ([1]; tetramers) | Trispecific response [1] | Immunogenicity in HHD mice, in words ([1]; response to at least one peptide) | Mice responding simultaneously to all three peptides (trispecific response), in words ([1]; vaccinated HHD mice, tetramers) | Frequency of strong responses (% of tetramer-positive CD8 cells at least twice the cutoff value; ++) [1] | Strength of responses in human donor cells, in words ([2]; against MAGE-A248V9 in donors #D7017 and #D7225, against HER-2/neu402Y in donor #D7744) | Peptides the donor's CD8 cells responded to ([2]; donor #D7225) | Donors with responses to all three peptides (trispecific) [2] |
| --- | --- | --- | --- | --- | --- | --- | --- | --- |
| YLEEITGYL-YLEYRQVPV-YLQVNSLQTV (SEQ ID No: 6) (YLEEITGYLYLEYRQVPVYLQVNSLQTV; Poly-4) [polypeptide variant, arrangement N-M-T] | 62% | 37.5 % of vaccinated mice | – | – | – | – | – | – |
| YLEYRQVPV-YLQVNSLQTV-YLEEITGYL (SEQ ID No: 4) (YLEYRQVPVYLQVNSLQTVYLEEITGYL; Poly-2) [polypeptide variant, arrangement M-T-N] | 57% | – | very weakly immunogenic | did not induce a trispecific response in any mice | – | – | – | – |
| YLQVNSLQTV-YLEEITGYL-YLEYRQVPV (SEQ ID No: 7) (YLQVNSLQTVYLEEITGYLYLEYRQVPV; Poly-5) [polypeptide variant, arrangement T-N-M] | 62% | 25 % of vaccinated mice | – | – | – | – | – | – |
| YLEEITGYL-YLQVNSLQTV-YLEYRQVPV (SEQ ID No: 5) (YLEEITGYLYLQVNSLQTVYLEYRQVPV; Poly-3) [polypeptide variant, arrangement N-T-M] | 87% | 12.5 % of vaccinated mice | – | – | 30 % of all responses | – | – | – |
| YLQVNSLQTV-YLEYRQVPV-YLEEITGYL (SEQ ID No: 2) (YLQVNSLQTVYLEYRQVPVYLEEITGYL; Poly-6) [polypeptide variant, arrangement T-M-N] | 83% | 67 % of vaccinated mice | – | – | 41 % of all responses | strongest responses | all three peptides | 80 % of donors |
| YLEYRQVPV-YLEEITGYL-YLQVNSLQTV (SEQ ID No: 3) (YLEYRQVPVYLEEITGYLYLQVNSLQTV; Poly-1) [polypeptide variant of MAGE-A248V9, HER-2/neu402Y and TERT988Y, arrangement M-N-T] | 100% | 28.5 % of vaccinated mice | – | – | 25 % of all responses | – | – | 25 % of donors |
